# Counter-ions that a name gives are not always drawn. Like-named read-outs stand apart in the source and are kept apart here.
# Tests used:
# [1] = test system: Staphylococcus aureus No. 50774; assay: In vivo efficacy against systemic infection; set-up: species or system male mice (ddY); conditions: NO.50774, in Mus musculus, 336 h, sc, twice, about 5 minutes and 6 hours after infection, read-out: ED50 (median effective dose)
# Method: (§1) The contents in the vials (No. A and No. C) prepared in Example 17 were each dissolved in deionized water, and injections having various concentrations were prepared.
# (§2) Compounds A, B, F, G, H and M were dissolved in deionized water. Compounds C, D, E and J were dissolved in an aqueous solution of sodium carbonate (pH 8-9) to prepare injections of various concentrations.
# (§3) Each of the injections was administered to mice under the conditions described below, and the median effective doses (ED50) obtained are shown in Table II.
# (§4) Mice: male mice (ddY) weighting about 20g
# Staphylococcus aureus No. 50774;
# Intravenous infection with 50 to 100
# LD50 (about 5 × 10^8cells/mouse) of a
# bacterial suspension in saline.
# (§5) twice, about 5 minutes and 6 hours after
# Staphylococcus aureus No. 50774 14 days
# The numerals in the table show ED50 (mg/kg). ED50 values were
# (§6) calculated in accordance with the Behrens-Kaerber method [Arch. Exp. Path
# [2] = test system: mice
# [3] = test system: bacteria (systemic infection); assay: In vivo efficacy against systemic infection, overall conclusions; set-up: species or system male mice (ddY); conditions: Table II
# Method: as §1, §2, §3
# [4] = test system: Escherichia coli P-5101; assay: In vivo efficacy against systemic infection; set-up: species or system male mice (ddY); conditions: P5101, in Mus musculus, 168 h, twice, about 5 minutes and 6 hours after infection, read-out: ED50 (median effective dose)
# Method: as §1
# (§7) Compounds A, B, F, G, H and M were dissolved in deionized water.
# as §4
# (§8) Intraperitoneal infection with 50 to
# (§9) of a bacterial suspension in tryptosoy
# as §5, §6
# [5] = test system: Pseudomonas aeruginosa No. 12; assay: In vivo efficacy against systemic infection; set-up: species or system male mice (ddY); conditions: for ED50: NO.12, in Mus musculus
# Method: as §1, §7, §4
# Pseudomonas aeruginosa No. 12;
# as §8, §9, §5
# Pseudomonas aeruginosa No. 12
# as §6
# [6] = in vivo; conditions: mouse
# [7] = test system: Klebsiella pneumoniae No. 13; assay: In vitro antibacterial activity (MIC); format: cell-based; conditions: Klebsiella pneumoniae No. 13; read-out: minimum inhibitory concentration (MIC)
# From the text: (§10) In vitro antibacterial activity against 20 strains of bacteria
# (§11) The numerals in the table show minimum inhibitory concentrations (MIC)
# [8] = test system: Salmonella typhimurium S-9; assay: In vitro antibacterial activity (MIC); format: cell-based; conditions: Salmonella enterica; Salmonella typhimurium S-9; read-out: minimum inhibitory concentration (MIC)
# From the text: as §10, §11
# [9] = test system: Corynebacterium pyogenes C-21; assay: In vitro antibacterial activity (MIC); format: cell-based; conditions: Rhodococcus (subgen. Prescottella) equi, C21; Corynebacterium pyogenes C-21; read-out: minimum inhibitory concentration (MIC)
# From the text: as §10, §11
# [10] = test system: Shigella flexneri 4a P-330; assay: In vitro antibacterial activity (MIC); format: cell-based; conditions: 4AP330, read-out: minimum inhibitory concentration (MIC)
# From the text: as §10, §11
# [11] = test system: Streptococcus faecalis P-2473; assay: In vitro antibacterial activity (MIC); format: cell-based; conditions: Enterococcus faecalis
# From the text: as §10, §11
# [12] = test system: Salmonella enteritidis No. 1891; assay: In vitro antibacterial activity (MIC); format: cell-based; conditions: Salmonella enterica; Salmonella enteritidis No. 1891; read-out: minimum inhibitory concentration (MIC)
# From the text: as §10, §11
# [13] = test system: Staphylococcus aureus 209P JC-1; assay: In vitro antibacterial activity (MIC); format: cell-based; conditions: Staphylococcus aureus 209P JC-1; read-out: minimum inhibitory concentration (MIC)
# From the text: as §10, §11
# [14] = test system: Pseudomonas aeruginosa No.12; assay: In vitro antibacterial activity (MIC); format: cell-based
# From the text: as §10, §11
# [15] = test system: Proteus rettgeri P-2503; assay: In vitro antibacterial activity (MIC); format: cell-based; conditions: Providencia rettgeri
# From the text: as §10, §11
# [16] = test system: Escherichia coli NIHJ JC-2; assay: In vitro antibacterial activity (MIC); format: cell-based
# From the text: as §10, §11
# [17] = test system: Enterobacter cloacae P-2540; assay: In vitro antibacterial activity (MIC); format: cell-based
# From the text: as §10, §11
# [18] = test system: Escherichia coli P-5101; assay: In vitro antibacterial activity (MIC); format: cell-based
# From the text: as §10, §11
# [19] = test system: Proteus mirabilis P-2381; assay: In vitro antibacterial activity (MIC); format: cell-based; conditions: P2381; Proteus mirabilis P-2381; read-out: minimum inhibitory concentration (MIC)
# From the text: as §10, §11
# [20] = test system: Streptococcus pyogenes 65A; assay: In vitro antibacterial activity (MIC); format: cell-based; conditions: Streptococcus pyogenes 65A; read-out: minimum inhibitory concentration (MIC)
# From the text: as §10, §11
# [21] = test system: Proteus morganii Kono; assay: In vitro antibacterial activity (MIC); format: cell-based; conditions: Morganella morganii; Proteus morganii Kono; read-out: minimum inhibitory concentration (MIC)
# From the text: as §10, §11
# [22] = test system: Escherichia coli P-140a; assay: In vitro antibacterial activity (MIC); format: cell-based
# From the text: as §10, §11
# [23] = test system: Serratia mercescens IFO 3736; assay: In vitro antibacterial activity (MIC); format: cell-based
# From the text: as §10, §11
# [24] = test system: Shigella flexneri 2a; assay: In vitro antibacterial activity (MIC); format: cell-based; conditions: read-out: minimum inhibitory concentration (MIC)
# From the text: as §10, §11
# [25] = test system: Pseudomonas aeruginosa Tsuchijima; assay: In vitro antibacterial activity (MIC); format: cell-based; conditions: read-out: minimum inhibitory concentration (MIC)
# From the text: as §10, §11
# [26] = test system: Staphylococcus aureus No. 50774; assay: In vitro antibacterial activity (MIC); format: cell-based; conditions: Staphylococcus aureus No. 50774; read-out: minimum inhibitory concentration (MIC)
# From the text: as §10, §11
# [27] = iv, twice, about 5 minutes and 6 hours after infection, read-out: ED50 (median effective dose)
# [28] = sc, twice, about 5 minutes and 6 hours after infection, read-out: ED50 (median effective dose)
# [29] = P2473, read-out: minimum inhibitory concentration (MIC)
# [30] = Pseudomonas aeruginosa, NO.12, read-out: minimum inhibitory concentration (MIC)
# [31] = Escherichia coli, NIHJJC2, read-out: minimum inhibitory concentration (MIC)
# [32] = Escherichia coli, P5101, read-out: minimum inhibitory concentration (MIC)
# [33] = P2503, Proteus rettgeri P-2503, read-out: minimum inhibitory concentration (MIC)
# [34] = P2540, Enterobacter cloacae P-2540, read-out: minimum inhibitory concentration (MIC)
# [35] = IFO3736, Serratia mercescens IFO 3736, read-out: minimum inhibitory concentration (MIC)
# [36] = Pseudomonas aeruginosa Tsuchijima
SMILES,ED50 [1],ED50 ([4]; iv),ED50 ([4]; sc),"ED50 [5, 27]","ED50 [5, 28]",LD50 at 168 h ([6]; iv),LD50 at 168 h ([6]; sc),selectivity ratio ([6]; sc),MIC [7],MIC [8],MIC [9],MIC [10],MIC [12],MIC [13],MIC [19],MIC [20],MIC [21],minimum inhibitory concentration (MIC) [22],MIC [24],MIC [26],further results
"CCN1CCN(C(=O)N[C@@H](C(=O)N[C@@H]2C(=O)N3[C@@H]2SC(C)(C)[C@@H]3C(=O)O)c2ccccc2)C(=O)C1=O [Compound H, D-α-(4-Ethyl-2,3-dioxopiperazine-1-carboxamido)-benzylpenicillin sodium salt]",8.8 mg/kg,43.3 mg/kg,26.3 mg/kg,> 100 mg/kg,141 mg/kg,> 4000 mg/kg,> 6000 mg/kg,> 42,6.25 µg/mL,0.39 µg/mL,6.25 µg/mL,3.13 µg/mL,0.39 µg/mL,0.39 µg/mL,0.78 µg/mL,0.025 µg/mL,0.78 µg/mL,12.5 µg/mL,1.56 µg/mL,0.78 µg/mL,"LD50 compared with compounds 1 and 2 (in words) ([2]; mice): almost the same; antibacterial activity in vivo as fraction of that of the penicillin compounds of this invention [3]: one-twentieth to one-seventieth; MIC [11, 29]: 3.13 µg/mL; MIC [14, 30]: 3.13 µg/mL; MIC ([15]; P2503, read-out: minimum inhibitory concentration (MIC)): 1.56 µg/mL; MIC [16, 31]: 3.13 µg/mL; MIC ([17]; Enterobacter cloacae, P2540, read-out: minimum inhibitory concentration (MIC)): 3.13 µg/mL; MIC [18, 32]: 1.56 µg/mL; MIC ([23]; Serratia, IFO3736, read-out: minimum inhibitory concentration (MIC)): 0.78 µg/mL; MIC ([25]; Pseudomonas aeruginosa): 1.56 µg/mL"
"CC(=O)N1CCN(c2ncc3c(=O)c(C(=O)N[C@@H](C(=O)N[C@@H]4C(=O)N5[C@@H]4SC(C)(C)[C@@H]5C(=O)O)c4ccc(O)cc4)c[nH]c3n2)CC1 [Compound 2, D-α-[5,8-Dihydro-2-(4-acetyl-1-piperazinyl)-5-oxopyrido[2,3-d]pyrimidine-6-carboxamido]-p-hydroxybenzylpenicillin sodium salt]",3.3 mg/kg,3.9 mg/kg,4.6 mg/kg,6 mg/kg,5 mg/kg,4520 mg/kg,> 6000 mg/kg,> 1200,12.5 µg/mL,0.78 µg/mL,0.78 µg/mL,3.13 µg/mL,0.78 µg/mL,1.56 µg/mL,6.25 µg/mL,0.006 µg/mL,6.25 µg/mL,12.5 µg/mL,3.13 µg/mL,1.56 µg/mL,"chemotherapeutic index relative to compounds B, D, E, F, G and J (times as high) ([2]; Pseudomonas aeruginosa): 3 to 100 times; LD50 relative to compounds A to G (times as high) ([2]; mice): 2 to 10 times; antibacterial activity in vivo (in words) [3]: excellent antibacterial activity in vivo; ED50 ([5]; parenteral administration, compounds 1 and 2 together, read-out: ED50): 2 to 6 mg/kg; antibacterial activity compared with compounds J and H (in words) ([5]; parenteral administration): far superior antibacterial activity; antibacterial activity relative to compounds B and C (times as high) ([5]; parenteral administration): 3 to 25 times; antibacterial activity relative to compounds D and E (times as high) ([5]; parenteral administration): 6 to 20 times; selectivity ratio ([6]; iv): 753; MIC ([11]; P2473, Streptococcus faecalis P-2473, read-out: minimum inhibitory concentration (MIC)): 6.25 µg/mL; MIC [14, 30]: 3.13 µg/mL; MIC [15, 33]: 25 µg/mL; MIC [16, 31]: 3.13 µg/mL; MIC [17, 34]: 6.25 µg/mL; MIC ([18]; P5101, Escherichia coli P-5101, read-out: minimum inhibitory concentration (MIC)): 0.78 µg/mL; MIC [23, 35]: 6.25 µg/mL; MIC [25, 36]: 0.78 µg/mL"
"CN1CCN(c2ncc3c(=O)c(C(=O)N[C@@H](C(=O)N[C@@H]4C(=O)N5[C@@H]4SC(C)(C)[C@@H]5C(=O)O)c4ccc(O)cc4)c[nH]c3n2)CC1 [Compound A, D-α-[5,8-Dihydro-2-(4-methyl-1-piperazinyl)-5-oxopyrido[2,3-d]pyrimidine-6-carboxamido]-p-hydroxybenzylpenicillin sodium salt]",3.7 mg/kg,0.7 mg/kg,1 mg/kg,2.6 mg/kg,3.6 mg/kg,1120 mg/kg,1500 mg/kg,417,6.25 µg/mL,0.2 µg/mL,0.78 µg/mL,0.78 µg/mL,0.2 µg/mL,1.56 µg/mL,3.13 µg/mL,< 0.1 µg/mL,3.13 µg/mL,6.25 µg/mL,0.78 µg/mL,3.13 µg/mL,"antibacterial activity in vivo (in words) [3]: almost comparable; selectivity ratio ([6]; iv): 432; MIC [11, 29]: 6.25 µg/mL; MIC ([14]; Pseudomonas aeruginosa No.12, read-out: minimum inhibitory concentration (MIC)): 1.56 µg/mL; MIC [15, 33]: 6.25 µg/mL; MIC ([16]; NIHJJC2, Escherichia coli NIHJ JC-2, read-out: minimum inhibitory concentration (MIC)): 0.78 µg/mL; MIC [17, 34]: 3.13 µg/mL; MIC [18, 32]: 0.39 µg/mL; MIC [23, 35]: 3.13 µg/mL; MIC [25, 36]: 0.39 µg/mL"
